These results are taken from ChEMBL document CHEMBL1141687, “Design, syntheses, and structure-activity relationships of novel NPY Y5 receptor antagonists: 2-{3-Oxospiro[isobenzofuran-1(3H),4'-piperidin]-1'-yl}benzimidazole derivatives” (Bioorg Med Chem Lett, 2008).

The target of data set [1] is T1, Neuropeptide Y receptor type 5 (Homo sapiens, UniProt Q15761).
T1 sequence (Q15761 whole entry): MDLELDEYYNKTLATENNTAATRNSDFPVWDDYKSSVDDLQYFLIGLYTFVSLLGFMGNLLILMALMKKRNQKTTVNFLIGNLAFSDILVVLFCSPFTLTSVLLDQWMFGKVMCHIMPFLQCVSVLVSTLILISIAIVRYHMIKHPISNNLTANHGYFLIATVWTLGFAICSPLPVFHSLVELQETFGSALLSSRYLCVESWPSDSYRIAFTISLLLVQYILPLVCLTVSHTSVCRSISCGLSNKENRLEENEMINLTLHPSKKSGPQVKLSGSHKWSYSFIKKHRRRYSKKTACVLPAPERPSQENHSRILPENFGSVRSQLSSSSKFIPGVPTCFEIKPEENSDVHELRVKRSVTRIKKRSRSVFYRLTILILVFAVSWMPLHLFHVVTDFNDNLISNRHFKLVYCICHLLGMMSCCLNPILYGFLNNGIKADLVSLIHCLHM
In words: Binding affinity to human NPY Y5 receptor transfected in mouse LMtk cells. It is filed as cell-based.

The next data set is described as follows: in vivo. To be noted: rat, brain and plasma, po, 10 mg/kg.
Data set [2] deals with Rattus norvegicus. The data set is described as follows: Plasma concentration in rat at 10 mg/kg, po after 2 hrs. It is filed as ADME, organism-based. The arrangement: dose 10 mg/kg, route oral.
Data set [3] has as its target T2, Neuropeptide Y receptor type 2 (Homo sapiens, UniProt P49146).
T2 sequence (P49146 whole entry): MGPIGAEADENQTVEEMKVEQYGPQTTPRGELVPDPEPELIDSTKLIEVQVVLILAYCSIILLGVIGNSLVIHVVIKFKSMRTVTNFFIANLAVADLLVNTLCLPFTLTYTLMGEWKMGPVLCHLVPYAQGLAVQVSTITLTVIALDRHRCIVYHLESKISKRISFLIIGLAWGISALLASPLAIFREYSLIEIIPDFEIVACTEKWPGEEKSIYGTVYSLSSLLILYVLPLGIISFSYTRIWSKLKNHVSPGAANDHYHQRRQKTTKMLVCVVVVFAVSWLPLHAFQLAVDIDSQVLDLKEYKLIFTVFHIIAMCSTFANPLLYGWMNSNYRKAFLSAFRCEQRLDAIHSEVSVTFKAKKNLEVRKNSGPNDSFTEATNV
In words: Binding affinity to NPY Y2 receptor.

Data set [4] has as its system Rattus norvegicus. In words: Plasma concentration in rat at 10 mg/kg, po after 4 hrs. Type of data set: ADME, organism-based. The arrangement: dose 10 mg/kg, route oral.
The target in data set [5] is T1, Neuropeptide Y receptor type 5. The data set is described as follows: Antagonist activity at human NPY Y5 receptor transfected in mouse LMtk cells assessed as inhibition of neuropeptide Y-induced increase in […] Ca2+ level. Type of data set: functional, cell-based.
In data set [6] the target is Neuropeptide Y receptor type 4 (Homo sapiens, UniProt P50391). In words: Binding affinity to NPY Y4 receptor.
Neuropeptide Y receptor type 4, sequence (P50391 whole entry): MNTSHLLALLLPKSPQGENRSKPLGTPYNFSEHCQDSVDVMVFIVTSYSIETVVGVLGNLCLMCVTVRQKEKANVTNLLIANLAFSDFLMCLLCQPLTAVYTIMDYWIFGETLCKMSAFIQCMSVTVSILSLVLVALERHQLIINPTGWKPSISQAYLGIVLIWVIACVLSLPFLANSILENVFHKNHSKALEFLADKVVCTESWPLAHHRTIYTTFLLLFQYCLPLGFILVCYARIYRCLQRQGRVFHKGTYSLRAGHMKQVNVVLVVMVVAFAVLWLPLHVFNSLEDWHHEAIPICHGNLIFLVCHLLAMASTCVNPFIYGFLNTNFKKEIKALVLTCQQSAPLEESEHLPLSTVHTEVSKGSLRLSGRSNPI
For data set [7], the target named is T3, Neuropeptide Y receptor type 1 (Homo sapiens, UniProt P25929).
T3 sequence (P25929 whole entry): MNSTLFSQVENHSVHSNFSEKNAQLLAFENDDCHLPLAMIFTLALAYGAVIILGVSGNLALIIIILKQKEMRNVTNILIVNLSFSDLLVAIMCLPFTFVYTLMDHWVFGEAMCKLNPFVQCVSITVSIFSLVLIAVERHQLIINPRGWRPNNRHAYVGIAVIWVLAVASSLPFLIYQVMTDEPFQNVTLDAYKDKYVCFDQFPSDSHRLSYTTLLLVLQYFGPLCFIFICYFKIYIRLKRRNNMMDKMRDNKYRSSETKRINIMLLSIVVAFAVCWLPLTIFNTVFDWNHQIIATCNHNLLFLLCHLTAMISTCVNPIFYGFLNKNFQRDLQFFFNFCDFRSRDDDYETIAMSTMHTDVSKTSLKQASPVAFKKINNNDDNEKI
In words: Binding affinity to NPY Y1 receptor.

Data set [8] has as its system Rattus norvegicus. In words: Suppression of intracerebroventricular injected D-trp34NPY-induced food intake in SD rat at 10 mg/kg, po administered 2 hrs prior to ICV injection measured after 2 hrs of D-trp34NPY challenge. Type of data set: functional, organism-based. The arrangement: dose 10 mg/kg.

The source made the active and inactive calls. The rule behind the calls is not given here.

Description for in vivo: Ratio of drug level in brain to plasma in rat at 10 mg/kg, po after 2 hrs

By IC50 is commonly meant the point on the concentration scale where inhibition reaches its midpoint. Molecule `O=C1OC2(CCN(Cc3nc4ccccc4[nH]3)CC2)c2ccccc21` gave a 50% inhibitory concentration (IC50) in [1] of 4900 nM.

Turning to `O=C1OC2(CCN(c3nc4cccc(C(F)(F)F)c4[nH]3)CC2)c2ccccc21`, the IC50 in data set [1] is 83 nM.

Broadly, the Kp is tissue or fluid exposure divided by exposure in the circulation. For the molecule `O=C1OC2(CCN(c3nc4cc(-c5ccccc5)ccc4[nH]3)CC2)c2ccccc21`, the partition ratio (Kp) at 2 h in the data set “in vivo” is 0.35. The Concentration in the data set on Rattus norvegicus [2] amounted to 1.8 µM. Also, the half-inhibitory concentration (IC50) in data set [3] is more than 10000 nM; in data set [1], 2.4 nM; in data set [5], 1.8 nM; in data set [6] it was more than 10000 nM; in data set [7], more than 10000 nM. The molecule further yielded a plasma concentration with Rattus norvegicus [4] of 1.3 µM. Consider `CS(=O)(=O)Nc1ccc2nc(N3CCC4(CC3)OC(=O)c3ccccc34)[nH]c2c1`, for which, in [1], the 50% inhibitory concentration (IC50) amounted to 56 nM.

For the molecule `O=C1OC2(CCN(c3nc4c(F)cccc4[nH]3)CC2)c2ccccc21`, the half-maximal inhibitory concentration (IC50) in data set [1] was found to be 500 nM. Molecule `COC(=O)c1ccc2[nH]c(N3CCC4(CC3)OC(=O)c3ccccc34)nc2c1` yielded a partition ratio (Kp) at 2 h in the data set “in vivo” of 0.08. Besides, the Concentration in the data set with Rattus norvegicus [2] came out at 3.2 µM. Also, the 50% inhibitory concentration (IC50) is more than 10000 nM in data set [3]; 2.7 nM in [1]; 1.5 nM in data set [5]; more than 10000 nM in data set [6]; more than 10000 nM in [7]. The plasma concentration in the data set on Rattus norvegicus [4] stood at 0.1 µM.

In turn, `O=C1OC2(CCN(c3nc4cc(Cl)c(F)cc4[nH]3)CC2)c2ccccc21` yielded a concentration for half-maximal inhibition (IC50) in data set [1] of 6.7 nM. In turn, `O=C1O[C@]2(CC[C@@H](c3nc4cccnc4[nH]3)CC2)c2ccccc21` gave a half-maximal inhibitory concentration (IC50) in [1] of 1400 nM. Still for that read-out and setting: the value for `O=C1OC2(CCN(c3nc4ccccc4s3)CC2)c2ccccc21` was more than 10000 nM; that for `O=C1OC2(CCN(c3nc4ccc(Br)cc4[nH]3)CC2)c2ccccc21` was 10 nM. As for `O=C1OC2(CCN(c3nc4cc5c(cc4[nH]3)OC(F)(F)O5)CC2)c2ccccc21`, the IC50 in data set [1] stood at 2.2 nM. Take `COc1ccc2[nH]c(N3CCC4(CC3)OC(=O)c3ccccc34)nc2c1`: the half-inhibitory concentration (IC50) in data set [1] stood at 37 nM. As to `O=C(O)c1ccc2[nH]c(N3CCC4(CC3)OC(=O)c3ccccc34)nc2c1`, in data set [1], the IC50 was more than 1000 nM.

In [1], `O=C1OC2(CCN(c3nc4c(-c5ccccc5)cccc4[nH]3)CC2)c2ccccc21` returned an IC50 of 17 nM. In turn, `Cc1cccc2[nH]c(N3CCC4(CC3)OC(=O)c3ccccc34)nc12` displayed an IC50 in [1] of 74 nM.

For `CC(=O)Nc1ccc2nc(N3CCC4(CC3)OC(=O)c3ccccc34)[nH]c2c1`, the IC50 in data set [1] was determined as 130 nM. Molecule `CS(=O)(=O)c1ccc2[nH]c(N3CCC4(CC3)OC(=O)c3ccccc34)nc2c1` showed an IC50 in data set [1] of 85 nM. Still for that read-out and setting: then `O=C1OC2(CCN(c3nc4cc(F)c(F)cc4[nH]3)CC2)c2ccccc21`, with 4.8 nM. Turning to `O=C1OC2(CCN(c3nc4cc(Cl)c(Cl)cc4[nH]3)CC2)c2ccccc21`, the Concentration with Rattus norvegicus [2] amounted to 2.9 µM. Further, the IC50 in [3] was more than 10000 nM; in [1] it was 1.6 nM; in [5], 1.4 nM; in data set [6], more than 10000 nM; in data set [7] it was more than 10000 nM. The molecule further showed a plasma concentration in the data set on Rattus norvegicus [4] of 4.6 µM. For the molecule `CC(C)Cc1ccc2nc(N3CCC4(CC3)OC(=O)c3ccccc34)[nH]c2c1`, the IC50 in data set [1] came out at 1.8 nM. In turn, `O=C1OC2(CCN(c3nc4ccccc4[nH]3)CC2)c2ccccc21` showed a 50% inhibitory concentration (IC50) in data set [1] of 140 nM. `O=C1OC2(CCN(c3nc4ccc([N+](=O)[O-])cc4[nH]3)CC2)c2ccccc21` yielded an IC50 in data set [1] of 10 nM.

In data set [1], `O=C1OC2(CCN(c3nc4cc(Cl)cc(Cl)c4[nH]3)CC2)c2ccccc21` came in with an IC50 of 5.7 nM. Same read-out and setting: the value for `CN(C)C(=O)c1ccc2nc(N3CCC4(CC3)OC(=O)c3ccccc34)[nH]c2c1` was 58 nM. The same measure, in the same setting: then `CNC(=O)c1ccc2nc(N3CCC4(CC3)OC(=O)c3ccccc34)[nH]c2c1`, with 20 nM. Molecule `O=C1OC2(CCN(c3nc4cc(C(F)(F)F)ccc4[nH]3)CC2)c2ccccc21` displayed a partition ratio (Kp) at 2 h in the data set “in vivo” of 0.31. Also, the Concentration with Rattus norvegicus [2] was found to be 15.3 µM. Besides, the outcome in the data set on Rattus norvegicus [8] was Active. Besides, the concentration for half-maximal inhibition (IC50) is more than 10000 nM in data set [3]; 3.5 nM in data set [1]; 6.4 nM in [5]; more than 10000 nM in data set [6]; more than 10000 nM in [7]. Moreover, the plasma concentration in the data set on Rattus norvegicus [4] was 17.5 µM. On to `Cc1ccc2[nH]c(N3CCC4(CC3)OC(=O)c3ccccc34)nc2c1`, for which the IC50 in [1] was 36 nM. Same read-out and setting: then `Cc1cc2nc(N3CCC4(CC3)OC(=O)c3ccccc34)[nH]c2cc1C`, with 9.2 nM; and `O=C1OC2(CCN(c3nc4cc5c(cc4[nH]3)OCO5)CC2)c2ccccc21`, with 9.3 nM; and `O=C1OC2(CCN(c3nc4cccnc4[nH]3)CC2)c2ccccc21`, with 1600 nM. In the data set on Rattus norvegicus [2], `O=C1OC2(CCN(c3nc4cc(Cl)ccc4[nH]3)CC2)c2ccccc21` registered a Concentration of 27.8 µM. The half-maximal inhibitory concentration (IC50) in data set [3] was more than 10000 nM; in data set [1] it was 6.6 nM; in data set [5], 1.2 nM; in data set [6] it was more than 10000 nM; in data set [7], more than 10000 nM. In the data set on Rattus norvegicus [4], this molecule gave a plasma concentration of 25.6 µM.

Regarding `O=C1OC2(CCN(c3nc4cc(F)ccc4[nH]3)CC2)c2ccccc21`, the concentration for half-maximal inhibition (IC50) in data set [1] amounted to 28 nM. Still for that read-out and setting: then `O=C1O[C@]2(CC[C@H](c3nc4ncccc4[nH]3)CC2)c2ccccc21`, with 91 nM; and `CS(=O)(=O)N1CC2(CCN(c3nc4ccccc4[nH]3)CC2)c2ccccc21`, with more than 1000 nM. Still for that read-out and setting: the value for `CCOC(=O)c1ccc2nc(N3CCC4(CC3)OC(=O)c3ccccc34)[nH]c2c1` was 2 nM; that for `COc1cccc2[nH]c(N3CCC4(CC3)OC(=O)c3ccccc34)nc12` was 250 nM. Still for that read-out and setting: then `NC(=O)c1ccc2nc(N3CCC4(CC3)OC(=O)c3ccccc34)[nH]c2c1`, with 110 nM; and `N#Cc1ccc2[nH]c(N3CCC4(CC3)OC(=O)c3ccccc34)nc2c1`, with 19 nM. Consider `O=C1OC2(CCN(c3nc4cccc(Cl)c4[nH]3)CC2)c2ccccc21`, for which, in data set [1], the half-inhibitory concentration (IC50) is 51 nM.
